# Assay results: patent publication US8288421B2, “Phenylaminopyridines” (Basilea Pharmaceutica AG, priority 2004, dated 2012)
# Assays:
# [1] = test system: HT1080; assay: MTS proliferation assay; type: cell-based, human; conditions: HT1080, 72 h read-out
# Protocol: (§1) The assay is performed in 96 well tissue culture plates. The cells (range: 1.5*10^3-10^4) are seeded out in 80 μl complete medium 24 h prior to compound treatment. The test compounds are added in 20 μl complete medium containing max 5% DMSO. The final compound concentrations in the assays are in the range of 0.001 μM-10 μM. The assay plates are incubated for 72 h at culture conditions. The MTS reagent is prepared according to the manufacturer's protocol (Promega G1111). 20 μl MTS reagent are added to each well, the assay plates are quickly spun and incubated for another 3 h at culture conditions. Subsequently, the plates are shortly shaked and absorption measured with a microplate-reader at 492 nm. The scores A, B, C and D are explained at the end of the Table.
# [2] = test system: HeLa; assay: MTS proliferation assay; type: cell-based, human; conditions: 72 h read-out
# Protocol: as §1
# [3] = test system: Jurkat; assay: MTS proliferation assay; type: cell-based, human; conditions: 72 h read-out
# Protocol: as §1
# [4] = test system: HeLa; assay: PI staining for cell cycle distribution; type: cell-based, human; conditions: 24 h read-out, read-out: PI staining for cell cycle distribution EC50 (G2M arrest), HeLa
# Protocol: 1-2*10^5 cells are seeded into 24 well tissue culture plates and incubated for 24 h prior to compound addition. Compounds are added for 24 h in a final concentration of 3 μM or 10 μM. Adherent cells are harvested by trypsinization. The cell suspensions are fixed by adding 2 parts ice cold ethanol 100% while vortexing. Then the samples are stored for >2 h at −20° C. Subsequently the cells are washed with PBS once and resuspended in 250 μl PBS containing 50 μg/ml PI (Calbiochem #537059), then the samples are incubated at 37° C. for 30 minutes and subsequently analyzed on a FACSCalibur™ monitoring linear PI fluorescence activity on FL2. The readout allows the detection of a possible direct or indirect influence of the tested compounds on the cell cycle. All active test compounds induce an arrest of the cell population in the G2M phase. This effect has been quantified by running the test at different concentrations. In Table 4 EC50 values are tabulated.
# [5] = test system: PBL; assay: Mitochondrial membrane potential (JC-1); type: cell-based, human; conditions: 48 h read-out
# Protocol: (§2) This assay is performed in 96 well tissue culture plates. Appropriate number of cells (adherent cells: 3-5*10^3, suspension cells: 8-10*10^3) are being seeded out in 80 μl complete medium. Adherent cells are incubated for 24 h for proper spreading out before addition of test compounds while suspension cells are immediately treated with test compounds after seeding out. The test compounds are added in 20 μal complete medium containing max 5% DMSO. […] The assay plates are then further incubated for 30 minutes and subsequently analyzed with a standard inverted fluorescence microscope by using the FITC and TRITC filters.
# (§3) The scores A, B, C and D are explained at the end of the Table.
# [6] = test system: MCF7; assay: Mitochondrial membrane potential (JC-1); type: cell-based, human; conditions: MCF7, 48 h read-out
# Protocol: as §2, §3
# [7] = test system: HeLa; assay: Mitochondrial membrane potential (JC-1); type: cell-based, human; conditions: 48 h read-out
# Protocol: as §2, §3
# [8] = test system: Jurkat; assay: Mitochondrial membrane potential (JC-1); type: cell-based, human; conditions: 48 h read-out
# Protocol: as §2, §3
# [9] = test system: PBL; assay: Hoechst 33342 nuclear staining; type: cell-based, human; conditions: 48 h read-out
# Protocol: as §2, with “μl” for “μal”, “DMSO. The final compound concentrations in the assays are in the range of 0.001 μM-10 μM.” for “DMSO.”, “microscope.” for “microscope by using the FITC and TRITC filters.”
# (§4) The readout allows the determination of the fraction of apoptotic nuclei as well as other morphological criteria specific for apoptosis as a function of the treatment. The scores A, B, C and D are explained at the end of the Table.
# [10] = test system: HeLa; assay: Hoechst 33342 nuclear staining; type: cell-based, human; conditions: 48 h read-out
# Protocol: as §2, with “μl” for “μal”, “DMSO. The final compound concentrations in the assays are in the range of 0.001 μM-10 μM.” for “DMSO.”, “microscope.” for “microscope by using the FITC and TRITC filters.”
# as §4
# [11] = test system: Jurkat; assay: Hoechst 33342 nuclear staining; type: cell-based, human; conditions: 48 h read-out
# Protocol: as §2, with “μl” for “μal”, “DMSO. The final compound concentrations in the assays are in the range of 0.001 μM-10 μM.” for “DMSO.”, “microscope.” for “microscope by using the FITC and TRITC filters.”
# as §4
# [12] = test system: MRC5; assay: Hoechst 33342 nuclear staining; type: cell-based; conditions: MRC5, 48 h read-out
# Protocol: as §2, with “μl” for “μal”, “DMSO. The final compound concentrations in the assays are in the range of 0.001 μM-10 μM.” for “DMSO.”, “microscope.” for “microscope by using the FITC and TRITC filters.”
# as §4
# [13] = test system: Jily; assay: Hoechst 33342 nuclear staining; type: cell-based; conditions: 48 h read-out
# Protocol: as §2, with “μl” for “μal”, “DMSO. The final compound concentrations in the assays are in the range of 0.001 μM-10 μM.” for “DMSO.”, “microscope.” for “microscope by using the FITC and TRITC filters.”
# as §4
# [14] = test system: MRC5; assay: MTS proliferation assay; type: cell-based; conditions: MRC5, 72 h read-out
# Protocol: as §1
# [15] = test system: Jily; assay: MTS proliferation assay; type: cell-based; conditions: 72 h read-out
# Protocol: as §1
# [16] = test system: DOHH2; assay: Mitochondrial membrane potential (JC-1); type: cell-based; conditions: DOHH2, 48 h read-out
# Protocol: as §2, §3
Structure (SMILES),"IC50 ([1]; Homo sapiens, HT-1080)",IC50 ([2]; Homo sapiens),IC50 ([3]; Homo sapiens),EC50 ([5]; Homo sapiens),EC50 [13],IC50 [1],IC50 [2],IC50 [3],EC50 [4],EC50 [5],EC50 [6],EC50 [7],EC50 [8],EC50 [9],EC50 [10],EC50 [11],EC50 [16],IC50 [15],EC50 [12],IC50 [14],other results
"COc1ccc(Nc2cncc(-c3cccc(Nc4ccccn4)c3)c2)cc1 [Example 3, 5-(p-Methoxyphenylamino)-3-(m-[2-pyridylamino]phenyl)pyridine]",10 to 100 nM,100 to 1000 nM,10 to 100 nM,> 1000 nM,10 to 100 nM,–,–,–,–,–,–,–,–,–,–,–,–,10 to 100 nM,–,–,"EC50 ([6]; Homo sapiens): 100 to 1000 nM; EC50 ([7]; Homo sapiens): 100 to 1000 nM; EC50 ([8]; Homo sapiens): 10 to 100 nM; EC50 ([9]; Homo sapiens): > 1000 nM; EC50 ([10]; Homo sapiens): 100 to 1000 nM; EC50 ([11]; Homo sapiens): 10 to 100 nM; EC50 ([12]; Homo sapiens): 100 to 1000 nM; IC50 ([14]; Homo sapiens): 100 to 1000 nM; EC50 ([16]; Homo sapiens, DOHH-2): 10 to 100 nM; melting point: 161 to 165 °C"
COc1ccc(Nc2cncc(-c3cccc(NS(=O)(=O)CCCCl)c3)c2)cc1 [Example 7],–,–,–,–,10 to 100 nM,100 to 1000 nM,100 to 1000 nM,10 to 100 nM,100 to 1000 nM,> 1000 nM,> 1000 nM,100 to 1000 nM,10 to 100 nM,> 1000 nM,10 to 100 nM,10 to 100 nM,10 to 100 nM,10 to 100 nM,10 to 100 nM,100 to 1000 nM,–
COc1ccc(Nc2cncc(-c3cccc(NC(=O)c4cccnc4Cl)c3)c2)cc1 [Example 11],–,–,–,–,10 to 100 nM,10 to 100 nM,10 to 100 nM,10 to 100 nM,< 10 nM,> 1000 nM,> 1000 nM,10 to 100 nM,10 to 100 nM,> 1000 nM,10 to 100 nM,10 to 100 nM,10 to 100 nM,10 to 100 nM,10 to 100 nM,10 to 100 nM,–
CCC(=O)Nc1cccc(-c2cncc(Nc3ccc(OC)cc3)c2)c1 [Example 21],–,–,–,–,100 to 1000 nM,100 to 1000 nM,100 to 1000 nM,10 to 100 nM,–,> 1000 nM,> 1000 nM,100 to 1000 nM,100 to 1000 nM,> 1000 nM,100 to 1000 nM,100 to 1000 nM,100 to 1000 nM,100 to 1000 nM,> 1000 nM,100 to 1000 nM,–

# More lines, main results first:
"IC50 ([1]; Homo sapiens, HT-1080)",IC50 ([2]; Homo sapiens),IC50 ([3]; Homo sapiens),EC50 ([5]; Homo sapiens),EC50 [13],IC50 [1],IC50 [2],IC50 [3],EC50 [4],EC50 [5],EC50 [6],EC50 [7],EC50 [8],EC50 [9],EC50 [10],EC50 [11],EC50 [16],Structure (SMILES),IC50 [15],EC50 [12],IC50 [14],other results
100 to 1000 nM,100 to 1000 nM,10 to 100 nM,> 1000 nM,100 to 1000 nM,–,–,–,–,–,–,–,–,–,–,–,–,"COc1ccc(Nc2cncc(-c3cccc(NS(C)(=O)=O)c3)c2)cc1 [Example 1, 3-(m-Mesylaminophenyl)-5-(p-methoxyphenylamino)pyridine]",10 to 100 nM,–,–,"EC50 ([4]; Homo sapiens): 100 to 1000 nM; EC50 ([6]; Homo sapiens): > 1000 nM; EC50 ([7]; Homo sapiens): 100 to 1000 nM; EC50 ([8]; Homo sapiens): 100 to 1000 nM; EC50 ([9]; Homo sapiens): > 1000 nM; EC50 ([10]; Homo sapiens): 100 to 1000 nM; EC50 ([11]; Homo sapiens): 100 to 1000 nM; EC50 ([12]; Homo sapiens): 100 to 1000 nM; IC50 ([14]; Homo sapiens): 100 to 1000 nM; EC50 ([16]; Homo sapiens, DOHH-2): 100 to 1000 nM; melting point: 240 °C"
–,–,–,–,< 10 nM,< 10 nM,10 to 100 nM,–,10 to 100 nM,> 1000 nM,100 to 1000 nM,10 to 100 nM,< 10 nM,> 1000 nM,10 to 100 nM,< 10 nM,< 10 nM,COc1ccc(Nc2cncc(-c3cccc(NC(=O)c4ccncc4)c3)c2)cc1 [Example 16],–,< 10 nM,< 10 nM,–
